According to ChEMBL document CHEMBL1201862, “PubChem BioAssay data set” (2004):
Calls of active or inactive are those of the source.

Columns and labels:
[1] = biological target: T1, Endoribonuclease toxin MazF (Escherichia coli K-12, UniProt P0AE70); assay: activation of MazEF endoribonuclease cleavage – biochemical, fluorescence, single-stranded RNA substrate, uHTS hits, dose response (AID 588481); assay type: functional
T1 sequence (P0AE70 whole entry): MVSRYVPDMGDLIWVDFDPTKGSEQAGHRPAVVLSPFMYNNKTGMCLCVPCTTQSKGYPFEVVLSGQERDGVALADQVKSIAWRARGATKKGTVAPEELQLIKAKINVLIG

[2] = biological target: T1, Endoribonuclease toxin MazF; assay: substrate-only fluorescence increase artefacts – biochemical, single-stranded RNase substrate, counter-screen for MazEF activator project, dose response (AID 588502); assay type: functional
[3] = P. falciparum Dd2 growth inhibitors, dose response, SYBR Green, cherry-picked samples (AID 1159567); assay type: functional, cell-based
[4] = biological target: Heat shock protein HSP 90-alpha (Homo sapiens, UniProt P07900); assay type: functional, organism-based
[5] = biological target: T2, Long-chain-fatty-acid--AMP ligase FadD28 (Mycobacterium tuberculosis, UniProt P9WQ59); assay: Fluorescence polarization aasay to screen for inhibitors that compete for the binding of FadD28 to a bisubstrate Measured in Biochemical System Using Plate Reader - 2147-01_Inhibitor_Dose_CherryPick_Activity.; assay type: functional, Mycobacterium tuberculosis H37Rv
T2 sequence (P9WQ59 whole entry): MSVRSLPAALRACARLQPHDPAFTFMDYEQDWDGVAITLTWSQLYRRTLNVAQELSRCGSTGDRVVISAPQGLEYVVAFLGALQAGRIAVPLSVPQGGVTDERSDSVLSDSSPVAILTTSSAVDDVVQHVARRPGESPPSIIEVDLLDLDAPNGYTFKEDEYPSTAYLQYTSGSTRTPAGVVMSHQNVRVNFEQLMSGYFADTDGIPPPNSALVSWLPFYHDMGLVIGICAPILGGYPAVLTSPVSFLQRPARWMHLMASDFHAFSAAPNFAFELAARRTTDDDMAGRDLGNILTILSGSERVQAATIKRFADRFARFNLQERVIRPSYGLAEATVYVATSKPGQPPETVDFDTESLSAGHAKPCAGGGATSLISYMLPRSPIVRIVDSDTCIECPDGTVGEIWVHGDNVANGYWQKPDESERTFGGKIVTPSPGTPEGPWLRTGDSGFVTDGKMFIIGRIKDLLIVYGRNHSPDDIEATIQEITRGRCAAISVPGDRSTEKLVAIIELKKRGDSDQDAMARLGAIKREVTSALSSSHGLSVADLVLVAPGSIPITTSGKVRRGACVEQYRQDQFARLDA

Cytochrome P450 3A4 = Cytochrome P450 3A4 (Homo sapiens, UniProt P08684); settings: Potency;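 note: confirmatory qHTS run detecting inhibitors and substrates of CYP3A4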
[6] = alpha-synuclein stem-loop luciferase translation blockers – H4 neuroglioma cells, luminescence, confirmation (AID 1988); assay type: functional, cell-based
[7] = microbe, parasite or virus in culture; assay type: functional; settings: Mycobacterium tuberculosis
[8] = Luminescence Cell-Based Dose Response HTS to Identify Inhibitors of 5'UTR Stem-Loop Driven Prion Protein mRNA Translation in H4 Neuroglioblastoma Cells. [Related pubchem assays: 1827 (Project Summary), 1813 (Primary HTS)]; assay type: functional
[9] = luciferase reporter signal suppression in cells – H4 neuroglioma cells, luminescence, dose response (AID 1990); assay type: functional, cell-based
H9c2 = assay: cells; assay type: functional, cell-based; settings: Rattus norvegicus, H9c2, Myocardium;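 note: confirmatory concentration-response retest of ultra-high-throughput screening hits for modulation of myocardial damage; cell death induced by hydrogen peroxide oxidative stress; compound pretreatment for 60 min then peroxide exposure for 2 h; potency is for protecting the cells against peroxide damage rather than for killing them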
[10] = HEK-293T viability loss after treatment – luminescence, T-cell screen hits, cytotoxicity control for TCR NF-kB inhibitor project, dose response (AID 489026); assay type: functional, cell-based;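 note: cells exposed to compound about 14 hours before the viability readout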
cells [11] = assay type: functional
[12] = Trypanosoma cruzi growth suppression in host cells – NIH3T3 host cells, beta-gal luminescence, confirmation (AID 2044); assay type: functional, cell-based;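 note: intracellular parasites grown in NIH/3T3 mouse fibroblasts as host cells; luminescent beta-galactosidase reporter signal from transgenic T. cruzi replicating inside host cells; inhibitors lower the luminescence signal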
[13] = THP-1 cell cytotoxicity, dose response, cytotoxicity control for non-replicating M. tuberculosis project (AID 489025); assay type: functional
[14] = NIH3T3 cell viability loss – ATP luminescence, mouse fibroblasts, counter-screen, dose response (AID 2010); assay type: functional, cell-based;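 note: cells exposed to compound for about 90 hours before reading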
[15] = Vero E6 cell cytotoxicity, dose response, cytotoxicity control for non-replicating M. tuberculosis project, secondary assay (AID 492998); assay type: functional, VeroE6; settings: Vero C1008
cells [16] = assay type: functional, cell-based
cells [17] = assay type: functional, cell-based; remark: listed apart in the source
cells [18] = assay type: functional, cell-based; remark: listed apart in the source
cells [19] = assay type: functional, cell-based; remark: listed apart in the source
[20] = biological target: T3, Polyadenylate-binding protein 1 (Homo sapiens, UniProt P11940); assay: MLLE domain peptide-binding blockers, IC50 – biochemical, fluorescence polarization, FITC-PAM2 peptide, dose response (AID 602259); assay type: functional; settings: read-out: IC50_Mean
[21] = biological target: T3, Polyadenylate-binding protein 1; assay: MLLE binding blockers, Cy5 peptide tracer – biochemical, fluorescence polarization, Cy5-PAM2 peptide, secondary, miRNA deadenylation inhibitor project, dose response (AID 602260); assay type: functional; settings: read-out: IC50_Mean
Protein RecA = biological target: T4, Protein RecA (Mycobacterium tuberculosis, UniProt P9WHJ3); assay: Fluorescence Cell-Free Homogeneous Dose Retest to Identify Inhibitors of RecA-Intein Splicing Activity. [Related pubchem assays (depositor defined):AID2097, AID2223, AID489010, AID492950]; assay type: functional
T4 sequence (P9WHJ3 whole entry): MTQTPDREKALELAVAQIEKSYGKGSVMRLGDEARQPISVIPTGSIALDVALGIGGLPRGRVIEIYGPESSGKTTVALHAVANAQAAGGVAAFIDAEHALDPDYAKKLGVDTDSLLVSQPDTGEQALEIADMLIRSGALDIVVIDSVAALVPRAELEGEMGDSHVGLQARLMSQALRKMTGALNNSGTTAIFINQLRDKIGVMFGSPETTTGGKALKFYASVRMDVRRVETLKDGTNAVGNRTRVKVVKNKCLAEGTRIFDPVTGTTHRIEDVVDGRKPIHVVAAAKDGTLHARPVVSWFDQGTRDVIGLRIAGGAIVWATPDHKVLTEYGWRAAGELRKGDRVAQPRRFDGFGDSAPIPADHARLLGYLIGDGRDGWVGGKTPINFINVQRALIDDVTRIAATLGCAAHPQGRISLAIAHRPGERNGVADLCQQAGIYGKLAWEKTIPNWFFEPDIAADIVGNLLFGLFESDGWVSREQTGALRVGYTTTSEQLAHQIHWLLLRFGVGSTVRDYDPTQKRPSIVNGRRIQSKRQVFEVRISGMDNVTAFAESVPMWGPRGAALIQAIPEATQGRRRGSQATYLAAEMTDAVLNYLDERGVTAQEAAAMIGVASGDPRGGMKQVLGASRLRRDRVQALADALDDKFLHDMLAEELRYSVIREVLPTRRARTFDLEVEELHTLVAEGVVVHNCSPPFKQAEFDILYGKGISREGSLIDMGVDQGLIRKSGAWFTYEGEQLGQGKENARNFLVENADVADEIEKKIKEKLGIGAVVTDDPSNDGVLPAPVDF

[22] = biological target: T5, Replicative DNA helicase DnaB (Mycobacterium tuberculosis, UniProt P9WMR3); assay: DnaB intein splicing inhibitors, dose response, biochemical, cell-free fluorescence (AID 449749); assay type: functional
T5 sequence (P9WMR3 whole entry): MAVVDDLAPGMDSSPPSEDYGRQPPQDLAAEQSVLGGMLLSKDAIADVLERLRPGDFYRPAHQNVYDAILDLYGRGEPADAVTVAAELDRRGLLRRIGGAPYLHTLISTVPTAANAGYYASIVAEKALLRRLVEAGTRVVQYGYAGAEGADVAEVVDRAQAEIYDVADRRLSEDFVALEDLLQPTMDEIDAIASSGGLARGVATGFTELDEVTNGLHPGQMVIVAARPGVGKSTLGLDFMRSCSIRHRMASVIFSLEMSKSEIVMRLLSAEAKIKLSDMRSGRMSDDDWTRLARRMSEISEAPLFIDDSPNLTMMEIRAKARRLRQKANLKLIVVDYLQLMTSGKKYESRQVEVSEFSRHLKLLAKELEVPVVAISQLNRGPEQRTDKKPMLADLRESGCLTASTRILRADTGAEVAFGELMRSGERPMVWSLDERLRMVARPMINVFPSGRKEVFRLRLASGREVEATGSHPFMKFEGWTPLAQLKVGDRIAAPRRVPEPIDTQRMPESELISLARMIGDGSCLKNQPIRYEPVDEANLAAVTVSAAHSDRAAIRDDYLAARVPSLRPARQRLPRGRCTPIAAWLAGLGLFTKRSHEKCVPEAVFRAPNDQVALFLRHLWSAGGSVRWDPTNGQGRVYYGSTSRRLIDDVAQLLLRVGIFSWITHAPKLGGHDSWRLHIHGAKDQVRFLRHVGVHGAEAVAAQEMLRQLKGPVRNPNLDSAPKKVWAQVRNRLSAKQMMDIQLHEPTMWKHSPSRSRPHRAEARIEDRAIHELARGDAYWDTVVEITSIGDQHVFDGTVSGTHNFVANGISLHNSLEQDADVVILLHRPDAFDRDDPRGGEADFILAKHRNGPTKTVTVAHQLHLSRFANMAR

Sequence of Cytochrome P450 3A4 (P08684 whole entry): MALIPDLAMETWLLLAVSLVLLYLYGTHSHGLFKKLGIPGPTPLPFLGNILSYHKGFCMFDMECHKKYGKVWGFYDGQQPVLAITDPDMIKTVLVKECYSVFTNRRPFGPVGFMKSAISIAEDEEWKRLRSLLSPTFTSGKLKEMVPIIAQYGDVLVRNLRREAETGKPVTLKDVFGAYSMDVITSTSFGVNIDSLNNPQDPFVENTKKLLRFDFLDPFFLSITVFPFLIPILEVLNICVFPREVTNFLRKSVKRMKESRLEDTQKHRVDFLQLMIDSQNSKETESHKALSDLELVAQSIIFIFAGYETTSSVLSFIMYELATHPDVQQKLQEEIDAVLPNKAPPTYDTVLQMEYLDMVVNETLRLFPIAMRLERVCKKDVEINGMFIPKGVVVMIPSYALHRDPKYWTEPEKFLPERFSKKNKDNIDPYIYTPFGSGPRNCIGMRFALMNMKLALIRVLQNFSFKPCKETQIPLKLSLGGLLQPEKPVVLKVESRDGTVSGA
T3 sequence (P11940 whole entry, the tested form may be a part): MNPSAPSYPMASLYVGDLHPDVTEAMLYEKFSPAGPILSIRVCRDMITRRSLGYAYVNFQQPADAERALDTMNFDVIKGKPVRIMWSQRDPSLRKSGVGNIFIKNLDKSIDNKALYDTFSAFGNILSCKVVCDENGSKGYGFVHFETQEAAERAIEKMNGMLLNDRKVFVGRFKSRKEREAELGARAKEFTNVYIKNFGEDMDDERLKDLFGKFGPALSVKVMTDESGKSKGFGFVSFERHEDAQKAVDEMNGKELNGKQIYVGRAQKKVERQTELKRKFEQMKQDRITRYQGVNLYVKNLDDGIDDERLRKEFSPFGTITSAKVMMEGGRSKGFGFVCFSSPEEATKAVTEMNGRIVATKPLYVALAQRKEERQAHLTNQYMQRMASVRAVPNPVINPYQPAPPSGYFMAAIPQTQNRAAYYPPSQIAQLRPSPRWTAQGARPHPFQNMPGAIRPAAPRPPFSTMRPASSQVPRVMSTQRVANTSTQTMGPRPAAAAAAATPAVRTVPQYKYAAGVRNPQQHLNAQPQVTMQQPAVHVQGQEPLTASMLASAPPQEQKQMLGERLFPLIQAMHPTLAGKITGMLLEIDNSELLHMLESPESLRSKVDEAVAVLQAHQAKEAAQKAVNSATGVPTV

CCOC(=O)CSc1nc2cc(C)ccc2cc1C#N
EC50 [1]: > 99 µM (inactive)
EC50 [2]: 26.8 µM (inactive)

C[C@H](CO)N1C[C@H](C)[C@H](CN(C)Cc2ccc(Oc3ccccc3)cc2)Oc2c(NC(=O)c3nc4ccccc4s3)cccc2C1=O
AC50 [3]: 4.87 µM (active)

COc1cc(OC)cc(N2C(=O)CC(N3CCC(C(=O)N4CCCCC4)CC3)C2=O)c1 (configuration not stated)
AC50 [4]: 8.16 µM (active)

Cc1ccc2c(c1)C(=O)C(=O)N2Cc1ccc(C(F)(F)F)cc1
AC50 [4]: 7.94 µM (active)

Nc1ncnc2c1ncn2[C@@H]1O[C@H](CNCc2ccc(OCc3ccccc3)cc2)[C@@H](O)[C@H]1O
AC50 [5]: 64.2 µM (active)

CCCCC(CC)COP(=O)(OCC(CC)CCCC)OCC(CC)CCCC (configuration not stated)
AC50 (Cytochrome P450 3A4): 15.8 µM (inconclusive)

CC1CN(c2ccc([N+](=O)[O-])c(NCCOc3ccc(Cl)cc3)c2)CC(C)N1 (configuration not stated)
EC50 [6]: 9.59 µM (active)
CC50 [7]: 11.7 µM (active)
EC50 [8]: 13.6 µM (active)
EC50 [9]: > 120 µM (not active)

Cc1cccc(-n2[nH]c(C)c(/C=N/c3ccc4[nH]c(O)nc4c3)c2=O)c1
EC50 [1]: 36 µM (inactive)
IC50 (H9c2): > 79 µM (inactive)
EC50 [2]: 65.2 µM (inactive)

COC(=O)c1cccc(C23CC4(C2)[C@H](CN(Cc2ccc(-c5ccccc5)cc2)[C@@H]4c2ccccc2)C3c2ccc(C(F)(F)F)cc2)c1 (some centres not stated)
AC50 (Cytochrome P450 3A4): 20 µM (inconclusive)

COc1cc(C2c3cc4c(cc3CC3COC(=O)C32)OCO4)cc(OC)c1OC (configuration not stated)
IC50 [10]: > 80 µM (inactive)

COC(=O)c1c(C)c2c(c(C)c1O)OC(=O)c1c(C)c(Cl)c(O)c(Cl)c1O2 [LEOIDIN]
AC50 (Cytochrome P450 3A4): 2.51 µM (inconclusive)

COCC(=O)N1CC2(C1)CN(Cc1cc(F)ccc1F)[C@H](CO)c1[nH]c3cc(OC)ccc3c12
AC50 [3]: 13.6 µM (active)

Cc1cccc(NC(=O)c2ccc([N+](=O)[O-])s2)n1
IC50 (cells [11]): 11.8 µM (active)
EC50 [12]: 0.325 µM (active)
CC50 [13]: 29.9 µM (active)
EC50 [14]: > 60 µM (not active)
CC50 [15]: 19.1 µM (active)

COc1cccc(NC(=O)CN(C)C(=O)c2cc3c(s2)CCCCC3)c1
AC50 [5]: 84 µM (active)

CC(C)c1cc(C(=O)NCCc2cccs2)c(N)s1
IC50 (cells [16]): > 29.9 µM (inactive)
EC50 (cells [17]): > 29.9 µM (inactive)

C=CCOC(=O)C(C(C)=O)C(NC(=O)OC)c1ccco1 (configuration not stated)
AC50 (Cytochrome P450 3A4): 5.01 µM (inconclusive)

Cc1cc(C)nc(Sc2ncnc(N)c2[N+](=O)[O-])n1
EC50 (cells [18]): > 350 µM (not active)
EC50 (cells [19]): > 350 µM (not active)
IC50 (cells [11]): 11.7 µM (active)
CC50 [13]: 23.8 µM (active)
CC50 [7]: 26.3 µM (active)
CC50 [15]: 17.8 µM (active)

COC(=O)[C@@H]1C[C@@H]2CC[C@@H](O)C[C@@H]2N1Cc1ccc(C)s1
AC50 (Cytochrome P450 3A4): 25.1 µM (inconclusive)

COc1ccc(NC(=O)CNc2ccccc2N2CCCC2=O)cc1S(=O)(=O)N1CCOCC1
AC50 [5]: 34.1 µM (active)

Nc1c(C(=O)c2ccc(Cl)cc2)sc2nc3c(cc12)CCC3
EC50 [1]: > 99 µM (inactive)
EC50 [2]: > 99 µM (inactive)

COc1ccc2nc3cc(Cl)ccc3c(C#N)c2c1
EC50 [1]: > 99 µM (inactive)
IC50 [20]: > 66 µM (inactive)
IC50 [21]: > 66 µM (inactive)
EC50 [2]: > 99 µM (inactive)

Cc1[nH]n(-c2ccccc2)c(=O)c1C(C[N+](=O)[O-])c1ccccc1Cl (configuration not stated)
EC50 (Protein RecA): 5.48 µM (active)
CC50 [7]: > 40 µM (active)
AC50 [22]: 6.69 µM (active)

Cc1sc(NC(=O)COc2cccc(-n3cnnn3)c2)c(C#N)c1C
EC50 [1]: > 99 µM (inactive)
EC50 [2]: > 99 µM (inactive)

O=c1c(-c2ccccc2)c(-c2ccccc2)oc2cc(O)cc(O)c12
AC50 [4]: 7.78 µM (active)
